The first assay concerns full thickness porcine skin. Briefly: Phage display library (PDL) screening for skin penetrating peptides on porcine skin in Franz diffusion cells. In kind it is in vitro ADME. Conditions: after third round of screening; phage-displayed 12-mer peptides; four different skin samples (n = 4); receptor collected after 24 hours. How it is done:
Phage Display Library (PDL) screening was performed on full thickness porcine skin using Franz diffusion cells. Porcine skin was sandwiched in between the donor and receptor compartments in such a way that SC faced the donor compartment. Phosphate-buffered saline (PBS: 10 mM), pH 7.4 (12 ml) was added in the receptor compartment. The skin was equilibrated at 37° C. for 0.5-1 hours before the experiment. The skin integrity was determined by measuring the skin conductivity.
To perform PDL screening, 1×10^11 plaque forming units (pfu) of phages from a 12-mer phage display peptide library (PDL) were added into the donor compartment and covered with parafilm to maintain the occlusive condition. Phage particles which permeated across the skin were collected from the receptor chamber after 24 hours and amplified using a standard M13 phage amplification protocol. Amplified pool of phages (1×10^11 pfu) was loaded again in the donor chamber for another round of screening. In this way, three rounds of screenings were performed.
After third round of screening, DNAs were isolated from phages, which crossed the skin consistently in higher numbers, and sent for DNA sequencing to analyze the peptide present on their surface. After three round of screening, seven (7) peptide sequences that consistently crossed the skin were identified (see Table 3). […] The identified peptides, SEQ ID NOs: 1-7, are referred to herein as skin penetrating peptides (SPPs).
In the case of “AYNAGSILENNF [YNAGSILENNF (SEQ ID NO: 5), 12-mer skin penetrating peptide (SPP) identified by phage display library screening on porcine skin]”, the “Frequency (how many times a same peptide sequence was identified when 31 peptides were randomly picked from the receptor compartment)” value is 2 out of 31.
The same measure, in the same setting: in the case of “GYGFSNTNSFFV [GYGFSNTNSFFV (SEQ ID NO: 3), 12-mer skin penetrating peptide (SPP) identified by phage display library screening on porcine skin]” it was 3 out of 31; in that of “HIITDPNMAEYL [HIITDPNMAEYL (SEQ ID NO: 1), 12-mer skin penetrating peptide (SPP) identified by phage display library screening on porcine skin]”, 8 out of 31; in that of “LVPDRMTAISRA [LVPDRMTAISRA (SEQ ID NO: 6), 12-mer skin penetrating peptide (SPP) identified by phage display library screening on porcine skin]”, 2 out of 31.
Same read-out and setting: then “NSLRNYDFLITM [NSLRNYDFLITM (SEQ ID NO: 7), 12-mer skin penetrating peptide (SPP) identified by phage display library screening on porcine skin]”, with 2 out of 31; and “SHMQNRPASDEH [SHMQNRPASDEH (SEQ ID NO: 4), 12-mer skin penetrating peptide (SPP) identified by phage display library screening on porcine skin]”, with 3 out of 31; and “SYTQRADSTTLH [SYTQRADSTTLH (SEQ ID NO: 2), 12-mer skin penetrating peptide (SPP) identified by phage display library screening on porcine skin]”, with 3 out of 31.

The same assay, now with this note: after three rounds of screening, full thickness porcine skin.
Take “HIITDPNMAEYL [HIITDPNMAEYL (SEQ ID NO: 1), 12-mer skin penetrating peptide (SPP) identified by phage display library screening on porcine skin]”: the “Crossing of the skin by phage displaying the peptide (in words)” value was “crossed the skin at very high frequency”.

The values above are taken from patent US20170258930A1, “SKIN PENETRATING PEPTIDES (SPPS) AND METHODS OF USE THEREFOR” (The Regents of the University of California, priority 2014, published 2017).
